Laboratory results published in patent US20100331312A1, “MODULATORS OF THE HISTAMINE H3 RECEPTOR USEFUL FOR THE TREATMENT OF DISORDERS RELATED THERETO” (ARENA PHARMACEUTICALS, INC., priority 2008, published 2010).
Counter-ions that a name gives are not always drawn.

How the values were obtained:
Histamine H3 Receptor [1] = molecular target: T1, Histamine H3 Receptor (Rattus norvegicus, UniProt Q9QYN8); experiment: [3H] N-alpha-methyl-histamine competitive histamine H3 receptor binding assay; design: A crude membrane fraction was prepared from whole rat brain cortex; from tissue; host or cells: whole rat brain cortex, crude membrane fraction; conditions: whole rat brain cortex membranes, [3H]-N-α-methylhistamine 1 nM
Protocol: [^3H] N-Alpha-Methyl-Histamine Competitive Histamine H3 Receptor Binding Assay
The histamine receptor binding assay was conducted using standard laboratory procedures as described below. A crude membrane fraction was prepared from whole rat brain cortex using a polytron to homogenize the tissue followed by differential centrifugation in a HEPES-based buffer containing protease inhibitors. Membranes where frozen at −80° C. until needed. Frozen membranes were thawed and resuspended in ice-cold assay buffer consisting of 50 mM TRIS containing 5 mM EDTA (pH=7.4). 50 micrograms (μg) of membrane protein was added to each well of a 96-well assay plate along with test compound and [^3H]-N-α-methylhistamine (1 nanomolar (nM) final assay concentration). Imetit was used as an assay positive control at varying concentrations. The plate was incubated for 30 min at room temperature. The assay was terminated by rapid filtration through a 96-well glass fiber filtration plate (GF/C) using a cell harvester (Perkin-Elmer). Captured membranes were washed three times with cold assay buffer and plates were dried at 50° C. 35 microliters (μL) of scintillation cocktail was added to each well and membrane-bound radioactivity was recorded using a TopCount 96-well plate scintillation counter (Perkin-Elmer).

[2] = molecular target: T2, human histamine H3 receptor (Homo sapiens, UniProt Q9Y5N1); experiment: Human histamine H3 receptor binding assay, MDS Pharma Services (Taiwan), Catalogue No. 239810
T2 construct: purchased MDS Pharma Services (Taiwan) 239810
Protocol: Human Histamine H3 Receptor Binding Assay—MDS Pharma Services (Taiwan)
Compounds of the invention were tested for their ability to bind to the human histamine H3 receptor using the MDS Pharma Services (Taiwan) assay, Catalogue No. 239810.

Histamine H3 Receptor [3] = molecular target: T1, Histamine H3 Receptor; experiment: Blockade of RAMH-induced drinking assay; type: in vivo; conditions: male Sprague Dawley rats, 0.3 mg/kg PO, RAMH 3 mg/kg SC, reduction in water intake
Protocol: Blockade of RAMH-Induced Drinking Assay
When administered to rodents, histamine H3 receptor agonists such as (R)-α-methylhistamine (RAMH) induce a drinking response that is sensitive to reversal with a histamine H3 receptor antagonist. Blockade of RAMH-induced drinking can therefore be utilized as an in vivo assay for functional histamine H3 receptor antagonist activity. In this assay, male Sprague Dawley rats (250-350 g) were housed three per cage and maintained under a reverse 12 h light cycle (lights off at 1130 h). At 1030 h on the day of test, rats were individually housed in new cages and food was removed. 120 min later, rats were administered test article (vehicle or histamine H3 receptor antagonist, 0.3 mg/kg PO). 30 min later, water was removed, and RAMH (vehicle or RAMH 3 mg/kg salt SC) was administered. 10 min after administration of RAMH, weighed water bottles were placed in the cages, and drinking was allowed for 20 min. Water consumption was determined for each animal by weighing each bottle to the nearest 0.1 g. Data is expressed as percentage reduction in water intake according to the following formula:
[((VEH/RAMH)−(ANTAGONIST/RAMH))/((VEH/RAMH)−(VEH/VEH))]*100

[4] = Dynamic vapor sorption (DVS) hygroscopicity; type: physicochemical; conditions: 25° C.
Protocol: Dynamic Vapor Sorption (DVS)
Hygroscopicity was measured using a dynamic moisture-sorption analyzer, VTI Corporation, SGA-100. The sample was placed as-is in a tared sample holder on the VTI balance. A drying step was run at 40° C. and ˜1% RH for 120 minutes. The isotherm conditions are 25° C. with steps of 20% RH from 10% RH up to 90% RH and back to 10% RH. Weight is checked every 2 minutes. Percent weight change of <0.01% in 20 minutes or 2 hours, whichever occurs first, is required before continuing to the next step. The DVS profile for the crystalline form (Form 1) of (R)-2-hydroxy-1-(6-(4-(2-(2-methylpyrrolidin-1-yl)ethyl)phenyl)-3,4-dihydroisoquinolin-2(1H)-yl)ethanone hydrochloride is shown in FIG. 16.

T1 sequence (Q9QYN8 whole entry): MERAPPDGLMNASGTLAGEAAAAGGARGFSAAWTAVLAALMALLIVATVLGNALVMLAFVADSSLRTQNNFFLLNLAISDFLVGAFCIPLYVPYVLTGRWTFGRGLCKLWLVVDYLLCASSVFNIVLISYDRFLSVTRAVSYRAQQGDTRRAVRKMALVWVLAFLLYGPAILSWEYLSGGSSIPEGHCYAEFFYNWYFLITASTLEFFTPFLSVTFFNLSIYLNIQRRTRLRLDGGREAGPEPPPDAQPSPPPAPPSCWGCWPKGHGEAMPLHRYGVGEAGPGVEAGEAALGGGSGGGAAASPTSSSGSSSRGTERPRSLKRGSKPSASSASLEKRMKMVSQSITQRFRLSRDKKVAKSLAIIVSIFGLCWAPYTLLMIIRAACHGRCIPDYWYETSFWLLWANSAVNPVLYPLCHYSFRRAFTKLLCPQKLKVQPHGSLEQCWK
T2 sequence (Q9Y5N1 whole entry): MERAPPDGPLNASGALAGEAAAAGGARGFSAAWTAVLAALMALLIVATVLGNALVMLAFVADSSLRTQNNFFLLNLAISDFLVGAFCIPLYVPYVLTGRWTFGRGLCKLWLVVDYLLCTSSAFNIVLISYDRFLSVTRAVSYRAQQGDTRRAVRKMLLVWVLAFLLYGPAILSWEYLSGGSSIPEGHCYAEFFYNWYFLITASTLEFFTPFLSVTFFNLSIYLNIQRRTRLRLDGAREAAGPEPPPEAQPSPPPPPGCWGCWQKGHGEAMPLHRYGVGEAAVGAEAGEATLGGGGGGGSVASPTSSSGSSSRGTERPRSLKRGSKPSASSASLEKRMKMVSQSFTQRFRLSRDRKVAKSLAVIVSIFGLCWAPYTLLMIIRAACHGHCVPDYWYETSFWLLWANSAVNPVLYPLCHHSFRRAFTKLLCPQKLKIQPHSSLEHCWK

Row | Structure (SMILES) | Ki (Histamine H3 Receptor [1]) | % inhibition of RAMH-induced drinking (Histamine H3 Receptor [3]) | also measured
1 | C[C@@H]1CCCN1CCc1ccc(-c2ccc3c(c2)CN(C(=O)C2CC2)C3)cc1 [Compound 5, (R)-cyclopropyl(5-(4-(2-(2-methylpyrrolidin-1-yl)ethyl)phenyl)isoindolin-2-yl)methanone] | 0.11 nM | – | Ki [2]: 0.57 nM
2 | COc1ccc(C(=O)N2CCc3cc(-c4ccc(CCN5CCC[C@H]5C)cc4)ccc3C2)cc1 [Compound 9, (R)-(4-methoxyphenyl)(6-(4-(2-(2-methylpyrrolidin-1-yl)ethyl)phenyl)-3,4-dihydroisoquinolin-2(1H)-yl)methanone] | 1.1 nM | – | –
3 | C[C@@H]1CCCN1CCc1ccc(-c2ccc3c(c2)CN(C(=O)C2CCOCC2)C3)cc1 [Compound 12, (R)-(5-(4-(2-(2-methylpyrrolidin-1-yl)ethyl)phenyl)isoindolin-2-yl)(tetrahydro-2H-pyran-4-yl)methanone] | 0.09 nM | – | –
4 | C[C@@H]1CCCN1CCc1ccc(-c2ccc3c(c2)CCN(C(=O)CCO)C3)cc1 [Compound 16, (R)-3-hydroxy-1-(6-(4-(2-(2-methylpyrrolidin-1-yl)ethyl)phenyl)-3,4-dihydroisoquinolin-2(1H)-yl)propan-1-one] | 1.52 nM | – | –
5 | C[C@@H]1CCCN1CCc1ccc(-c2ccc3c(c2)CCN(C(=O)CO)C3)cc1 [Compound 10 HCl Salt (Form 1), (R)-2-hydroxy-1-(6-(4-(2-(2-methylpyrrolidin-1-yl)ethyl)phenyl)-3,4-dihydroisoquinolin-2(1H)-yl)ethanone hydrochloride] | – | – | DVS absorption at 90% relative humidity ([4]; crystalline Form 1, hydrochloride): FIG. 16: absorption of less than 0.25%; DVS absorption at 90% relative humidity ([4]; crystalline Form 1, listed as Form 1 of the HCl salt of Compound 10, hydrochloride): about 0.25%

Continued, in another order:

Row | Ki (Histamine H3 Receptor [1]) | % inhibition of RAMH-induced drinking (Histamine H3 Receptor [3]) | Structure (SMILES) | also measured
6 | – | 66.1% | C[C@@H]1CCCN1CCc1ccc(-c2ccc3c(c2)CCN(C(=O)c2ccccn2)C3)cc1 [Compound 18, (R)-(6-(4-(2-(2-methylpyrrolidin-1-yl)ethyl)phenyl)-3,4-dihydroisoquinolin-2(1H)-yl)(pyridin-2-yl)methanone] | Ki [2]: 2.15 nM
7 | – | 40.7% | C[C@@H]1CCCN1CCc1ccc(-c2ccc3c(c2)CCN(C(=O)c2ccncc2)C3)cc1 [Compound 14, (R)-(6-(4-(2-(2-methylpyrrolidin-1-yl)ethyl)phenyl)-3,4-dihydroisoquinolin-2(1H)-yl)(pyridin-4-yl)methanone] | –
8 | 0.45 nM | – | C[C@@H]1CCCN1CCc1ccc(-c2ccc3c(c2)CCN(C(=O)C2CC2)C3)cc1 [Compound 3, (R)-cyclopropyl(6-(4-(2-(2-methylpyrrolidin-1-yl)ethyl)phenyl)-3,4-dihydroisoquinolin-2(1H)-yl)methanone] | –
9 | – | 81.6% | COCCC(=O)N1CCc2ccc(-c3ccc(CCN4CCC[C@H]4C)cc3)cc2C1 [Compound 1, (R)-3-methoxy-1-(7-(4-(2-(2-methylpyrrolidin-1-yl)ethyl)phenyl)-3,4-dihydroisoquinolin-2(1H)-yl)propan-1-one] | –
